Test results as given in US9078928B2, “Conjugated molecules comprising a peptide derived from the CD4 receptor coupled to a polyanionic polypeptide for the treatment of AIDS” (Institut Pasteur, priority 2011, dated 2015).

What was measured:
Assay type in all cases: cell-based
clinical HIV-1 isolates = experiment: Antiviral assay on the series of clinical HIV-1 isolates, summary in text (Example 4); conditions: primary strains of Table 5
From the text: The antiviral assay was extended to a series of more clinically relevant primary strains, including 92UG029, SF162, 92US723, 96USHIPS4, 92HT599 and 98IN017.
Phytohemagglutinin (PHA)-P-activated PBMCs were infected either with the reference lymphotropic HIV-1/LAI strain (Barre-Sinoussi, et al., 1983) or with the reference macrophage-tropic HIV-1/Ba-L strain (Gartner, et al., 1986). These viruses were amplified in vitro with PHA-P-activated blood mononuclear cells. Viral stocks (including clinical isolates) were titrated using PHA-P-activated PBMCs, and 50% tissue culture infectious doses (TCID50) were calculated using Kärber's formula (Kärber, 1931). Viruses (125 TCID50) were incubated for 30 min with five concentrations (1:5 dilutions between 500 nM and 320 pM) of each of the molecules to be tested and added to 150 000 PBMCs (m.o.i.˜0.001). […] Viral replication was measured by quantifying reverse transcriptase (RT) activity in the cell culture supernatants using the Lenti RT Activity Kit (Cavisi) and AZT was used as reference anti-HIV-1 molecule. In parallel, cytotoxicity was evaluated on day 7 in uninfected PHA-P-activated PBMC using a colorimetric methyl-tetrazolium salt (MTS/PMS) assay (Promega). Experiments were performed in triplicate and 50, 70 and 90% effective doses (ED) were calculated using SoftMaxPro software.

X4-tropic HIV-1-LAI = experiment: Antiviral assay in PHA-P-activated PBMC, RT activity in supernatant at day 7 (Example 3); conditions: mean of triplicate; for ED70 VIH-1-LAI(X4) Average: effective dose to inhibit 70% of HIV-1 replication; for ED90 VIH-1-LAI(X4) Average: effective dose to inhibit 90% of HIV-1 replication
Protocol: The antiviral experiment have been performed as described in WO/2009/098147 and Nature Chemical Biology, 2009, 5(10), 743-748.
(§1) Briefly, the X4-tropic HIV-1-LAI (Barre-Sinoussi, Science 220, 868-71, 1983) or the R5-tropic HIV-1/Ba-L (Gartner et al, Science 233, 215-9, 1986) strains were amplified and titrated in vitro on Phytohemaglutinin-P (PHA-P)-activated peripheral blood mononuclear cells (PBMC). Tissue culture infectious doses were calculated using Kärber's formula (Kärber, Arch. Exp. Path. Pharmak. 162, 480-483, 1931). For the antiviral assay, PHA-P-activated PBMC were pre-treated for 30 minutes with six concentrations of each drug (1:5 dilutions between 0.5 μM and 160 pM) and infected with one hundred 50% tissue culture infectious doses (TCID50) of either the X4-tropic LAI or R5-tropic Ba-L strain. Drugs were maintained throughout the culture, and cell supernatants were collected at day 7 post-infection and stored at −20° C. Azidothymidine (AZT) was used in these experiments as an internal control. Viral replication was measured by quantifying reverse transcriptase (RT) activity in cell culture supernatants using the RetroSys HIV RT kit (Innovagen). In parallel, cytotoxicity of the samples was evaluated in uninfected PHA-P-activated PBMC by a methyltetrazolium salt (MTT) assay on day 7. Experiments were performed in triplicate and 50, 70 and 90% effective doses and cytotoxic doses were calculated using SoftMaxPro software.
PHA-P-activated PBMC were treated with each of the drug under investigation (1:5 dilutions between 0.5 μM and […]) and infected with 100 TCID50 of either HIV-1-LAI (X4 tropic) or /Ba-L (R5 tropic) strain. Molecules and viruses were maintained throughout the culture, and cell supernatants were collected at day 7 post-infection from which reverse transcriptase activity was quantified. Experiments were performed in triplicate and 50, 70 and 90% effective doses (ED), in nM (±S.D.) were calculated using SoftMaxPro software.

R5-tropic HIV-1/Ba-L = experiment: as above; conditions: mean of triplicate; for ED70 VIH-1/Ba-L(R5) Average: effective dose to inhibit 70% of HIV-1 replication; for ED90 VIH-1/Ba-L(R5) Average: effective dose to inhibit 90% of HIV-1 replication
Protocol: as §1, with “For the antiviral assay, PHA-P-activated PBMC were pre-treated for 30 minutes with six concentrations of each drug (1:5 dilutions between 0.5 μM and 160 pM) and infected with one hundred 50% tissue culture infectious doses (TCID50) of either the X4-tropic LAI or R5-tropic Ba-L strain.” left out
Molecules and viruses were maintained throughout the culture, and cell supernatants were collected at day 7 post-infection from which reverse transcriptase activity was quantified. Experiments were performed in triplicate and 50, 70 and 90% effective doses (ED), in nM (±S.D.) were calculated using SoftMaxPro software.

## NH2-(CH2)3-CO-S-YSO3-D-YSO3-S-YSO3-D-YSO3-S-YSO3-D-YS03-S (SXDXSXDXSXDXS; non-natural residues) [P3YSO3]
Clinical HIV-1 isolates
  antiviral activity against clinical isolates (in words): only poorly active or inactive

## NH2-(CH2)3-CO-S-Asu-D-Asu-S-Asu-D-Asu-F-Asu-F-D-Asu-S [P3Asu]
X4-tropic HIV-1-LAI
  ED70 VIH-1-LAI(X4) Average: >500 nM
  ED90 VIH-1-LAI(X4) Average: >500 nM
R5-tropic HIV-1/Ba-L
  ED70 VIH-1/Ba-L(R5) Average: >500 nM
  ED90 VIH-1/Ba-L(R5) Average: >500 nM

## NH2-(CH2)3-CO-S-pF-D-pF-S-pF-D-pF-S-pF-D-pF-S [P3pF]
X4-tropic HIV-1-LAI
  ED70 VIH-1-LAI(X4) Average: >500 nM
  ED90 VIH-1-LAI(X4) Average: >500 nM
R5-tropic HIV-1/Ba-L
  ED70 VIH-1/Ba-L(R5) Average: >500 nM
  ED90 VIH-1/Ba-L(R5) Average: >500 nM
